Source: US10888549B2, “Pharmaceutical agents targeting cancer stem cells” (THE JOHNS HOPKINS UNIVERSITY, priority 2016, dated 2021)

Experiments:
SOX2 = SOX2 expression by western blotting / flow cytometry; type: cell-based, human; details: basal-type cells
Experimental: (§1) Whole cell lysates were extracted using RIPA buffer (Thermo Scientific) supplemented with 10 μL/mL Halt™ Protease Inhibitor Cocktail Kit (Life Technologies) and 30 μL/mL Halt™ Phosphatase Inhibitor Cocktail Kit (Life Technologies). The protein concentrations were determined using a Pierce™ BCA Protein Assay Kit (Life Technologies), and the protein were separated on NuPAGE® 4-12% Bis-Tris Gel (Life Technologies) according to the manufacturer's protocol. COX2 (D5H5), NANOG (D73G4), OCT4 (D7O5Z), CD133 (A3G6K), Snail (C15D3), ZEB1 (D80D3), Vimentin (D21H3), CDH2 (D4R1H), CDH1 (24E10), p-EGFR (D7A5), EGFR (D38B1), p-AKT (D9E), AKT (cat #, 9272), p-ERK (D13.14.4E), ERK (137F5), p-YAP1 (D9W2I), p-Src (cat #, 2101), Src (36D10), DNMT1 (D63A6), DNMT3A (D23G1), and DNMT3B (D7O7O) antibodies were obtained from Cell Signaling Technology (Danvers, Mass., USA), except for SOX2 (EPR3131; Abcam, Cambridge, USA), YAP1 (ab52771; Abcam), CD24 (cat #, AF5247-SP; R&D Systems, Minneapolis USA) and β-actin (A2228; Sigma-Aldrich). Secondary horseradish peroxidase (HRP)-conjugated antibodies were obtained from Cell Signaling Technology, and chemiluminescent detection of HRP-labeled antibodies was performed using Amersham ECL Prime Western Blotting Detection Reagent (GE Healthcare, Piscataway, USA). As loading control, β-actin was used.
For extracellular staining, cells (1×10^6/100 μL stain buffer) were incubated with PE-Vio770-conjugated anti-human CD133 (293C3; Miltenyi Biotec, Auburn, USA) or PE-conjugated anti-human CD24 antibody (cat #, 560991; BD Biosciences) for 30 min at 4° C. in dark. PE-Vio770-conjugated Isotype (cat #, 130-098-563; Miltenyi Biotec) and PE-conjugated IgG2a, κ Isotype (cat #, 555574; BD Biosciences) were used as control for CD133 and CD24 staining, respectively. Staining for intracellular SOX2 was carried out using the BD Cytofix/Cytoperm Fixation/Permeabilization Kit (BD Biosciences) according to manufacturer's protocol. The cells were incubated with Alexa Fluor 647-conjugated anti-SOX2 antibody (cat #, 560302; BD Biosciences) for 40 min at 4° C. in dark. Alexa Fluor 647-conjugated anti-IgG2a, κ Isotype (cat #, 558053; BD Biosciences) was used as control. Data were acquired on a BD FACSCalibur flow cytometer (BD Biosciences) using BD CellQuest Pro software (BD Biosciences) and analyzed with FlowJo software v10.1 (Tree Star, Ashland, USA).

EGFR-MAPK signaling = test: Western blotting in xenograft tumors that acquired resistance to erlotinib; type: in vivo, mice; details: xenograft tumors with acquired resistance to EGFR inhibitor
Experimental: (§2) Whole cell lysates were extracted using RIPA buffer (Thermo Scientific) supplemented with 10 μL/mL Halt™ Protease Inhibitor Cocktail Kit (Life Technologies) and 30 μL/mL Halt™ Phosphatase Inhibitor Cocktail Kit (Life Technologies). […] Secondary horseradish peroxidase (HRP)-conjugated antibodies were obtained from Cell Signaling Technology, and chemiluminescent detection of HRP-labeled antibodies was performed using Amersham ECL Prime Western Blotting Detection Reagent (GE Healthcare, Piscataway, USA). As loading control, β-actin was used.
For celecoxib and/or VP treatment, celecoxib (5 mg/kg) was administered via intraperitoneal (i.p.) injection once a day (17), and VP (50 mg/kg) was administered via i.p. every other day (18). […] For GEM and CDDP (GC) treatment (i.p.), CDDP (6 mg/kg) was only applied after the first GEM (60 mg/kg) treatment on day 2, followed by three consecutive treatments of GEM on day 5, 8 and 11 (17). The next cycle was started on day 18, and the treatment was continued until tumor reached 2 cm in diameter. For erlotinib treatment, the mice were treated once a day, 6 days per week, by oral gavage with erlotinib (100 mg/kg) or control (PBS containing 0.5% methyl cellulose (Sigma-Aldrich) and 0.1% TWEEN 80) (20). Tumor size was measured at least every three days. […]

YAP1 = YAP1 expression by western blotting; type: cell-based, human
Experimental: as §1

[1] = system: AKT and extracellular signal-related kinase (ERK); test: Western blotting of AKT and ERK activation; type: cell-based, human; details: basal-type cells; 1 μM erlotinib
Experimental: as §1

urothelial CSCs = test: Sphere formation assay (CSC properties); type: cell-based, human; details: basal-type cells; 1 μM erlotinib for 72 hours
Experimental: Sphere formation was induced by culturing cells (2×10^4/well) in DMEM/Ham's F12 50/50 Mix (Mediatech) supplemented with B-27 (Life Technologies), 20 ng/mL FGF-basic (Peprotech), 20 ng/mL EGF (Peprotech). Cell culture was performed in ultra-low attachment 6 well plates (Corning, Lowell, USA) for 10 days. The medium was replaced every other day. Sphere formation was evaluated using the inverted phase-contrast microscope, and single sphere with a diameter larger than 100 μm was counted using NIS-Elements Microscope Imaging Software. To redifferentiate spheres, spheres were plated in standard growth medium with 10% FBS in dishes supporting cell attachment, and incubated for 7 days. For self-renewal assay, primary spheres were collected by gentle centrifugation (5 min at 400×g), dissociated with Stempro Accutase Cell Dissociation Reagent (Life Technologies), and mechanically disrupted with a pipette. The cell suspension was sieved through 40 μm cell strainer cap filter to achieve a single-cell suspension, and then equal numbers of alive cells were plated in ultralow attachment plates to generate the second spheres. Again, spheres were counted on day 14 and digested to generate the third Spheres. All the experiments were performed in triplicate and repeated at least three times.

COX2 = COX2 expression by western blotting; type: cell-based, human
Experimental: as §2

With `C#Cc1cccc(Nc2ncnc3cc(OCCOC)c(OCCOC)cc23)c1` [erlotinib, Erlotinib] the SOX2 expression (SOX2) was “decreased at 1 hour after treatment with erlotinib and then gradually increased”, the EGFR-MAPK signaling (EGFR-MAPK signaling) was “remained suppressed” and the YAP1 expression (YAP1; basal-type cells) was “continuously decreased”. The YAP1 expression (YAP1; non-basal-type cells) was “did not affect”, the “activation of AKT and extracellular signal-related kinase (ERK)” value [1] was “suppressed activation” and the number of spheres (urothelial CSCs) was “enriched number of spheres”. The COX2 expression (COX2; basal-type cells) was “increased” and the COX2 expression (COX2; non-basal-type cells) was “did not affect”.
